According to article PMC5839262, “Inhibitors of bacterial protease enzymes for periodontal therapy” (Clinical and Experimental Dental Research, 2015):
Read-outs that look alike come from different tables or passages of the source. Where a SMILES comes first, the peptide text is derived from it.

How the values were obtained:
[1] = molecular target: Kgp (Porphyromonas gingivalis, UniProt B2RLK2); assay: Kgp gingipain activity, fluorescent assay with Boc‐VLK‐AMC in Pg cell suspensions; assay type: biochemical
Method: (§1) To obtain culture media for measuring secreted gingipain activity, we removed bacteria by centrifugation followed by filtration through 0.2‐µm filters, and we supplemented the medium with 0.2 mM PMSF to block any serine‐protease activity. To measure cell‐associated activity, we resuspended bacteria to an optical density of 4.0 at 600 nm (4 × 10^9 CFU/mL) in DPBS, and PMSF was added. Portions of the media and bacterial suspensions were frozen in liquid nitrogen and stored at −80°C.
(§2) The gingipain assay was adapted from procedures of Chen et al. (2001) and Suwannakul et al. (2010). To measure activity of Rgp or Kgp, respectively, we incubated various volumes of media or bacterial suspensions 10 min at 37°C in DPBS with 1 mM L‐cysteine to ensure that the gingipain active‐site cysteine was in the reduced, active form, and then we added the substrate benzoyl‐R‐AMC or Boc‐VLK‐AMC to give 0.2 mM substrate in a final volume of 0.1 mL. The incubation was continued 15 min at 37°C in black multiwell plates. Incubations were stopped by adding 50 μL of 1.5 mM TLCK, an irreversible inhibitor of serine and cysteine proteases. Fluorescence was measured with a fluorescence plate reader (SpectraMax Gemini EM, Molecular Devices, Sunnyvale, CA) with excitation at 365 nm and emission at 460 nm to measure hydrolysis of the substrate and release of the fluorescent product.
(§3) To measure effects of inhibitors on Rgp or Kgp activity, we diluted conditioned media fivefold or bacterial suspensions fiftyfold with DPBS, and we selected a diluted sample volume of 20 μL or less that gave a strong fluorescent signal, and we incubated the sample 15 min in DPBS with 0.2 mM substrate and various levels of protease inhibitors.

[2] = test system: Rgp; assay: Rgp gingipain activity, fluorescent assay with benzoyl‐R‐AMC in Pg cell suspensions; assay type: biochemical, Porphyromonas gingivalis; conditions: for IC50: 0.2 mM benzoyl‐R‐AMC, 15 min, read-out: concentration causing 50% inhibition of Rgp activity; for effect on Rgp activity: concentrations up to 1 × 10^−4 M, results not shown
Method: as §1, §2, §3

[3] = test system: Pg; assay: Bactericidal activity, LIVE/DEAD BacLight viability assay; assay type: cell-based, Porphyromonas gingivalis; conditions: 1 h; for bactericidal activity: both Pg strains, concentrations up to 1 × 10^−4 M
Method: Pg bacteria were collected by centrifugation and diluted to 2 × 10^8 CFU/mL in isotonic saline at 25°C. Pg (10^8 CFU/mL) were then incubated with various concentrations of protease inhibitors at 37°C with gentle mixing in 0.1 mL incubation mixtures in black multiwell plates inside AnaeroGen™ Compact pouches (Oxoid Corporation, Nepean, ON, Canada) to lower the oxygen (O2) concentration. After 1 h, the number of live bacteria per milliliter was measured with a LIVE/DEAD BacLight™ Bacterial Viability kit (Invitrogen, Inc., Carlsbad, CA). The assay determines the number of live bacteria based on entry of the fluorescent dyes SYTO 9 and propidium iodide into the bacteria. SYTO 9 enters both live and dead bacteria and binds to DNA, giving a green fluorescence. Propidium iodide enters only dead bacteria and binds to DNA, giving a red fluorescence. A 0.1 mL portion of 2× BacLight dye mixture was added to the bacteria in the wells, and the plate was incubated 15 min at 37°C in an AnaeroGen™ pouch in the dark. Immediately following removal of the plate from the pouch, fluorescence was measured in a fluorescence plate reader with excitation at 485 nm. Green fluorescence of SYTO 9 was measured at 538 nm, and red fluorescence of propidium iodide was measured at 612 nm. Standard curves were prepared with various ratios of live and dead bacteria, and the number of live bacteria was determined from the ratio of green to red fluorescence. Control experiments were performed in which Pg viability was measured by diluting, plating on blood agar plates, and counting colonies after 1 to 2 weeks at 37°C under anaerobic conditions to confirm that the plating and fluorescent assays provided similar results. Toxicity of the protease inhibitors to E. coli was also measured. Assay conditions were the same as for Pg except that incubations were in air.

[4] = test system: cultured human cells; design: method as in Kadowaki et al., 2004; Kataoka et al., 2014; conditions: ref Kadowaki et al., 2004; Kataoka et al., 2014; cited from earlier work
[5] = Water solubility; assay type: physicochemical; conditions: stated in discussion
[6] = test system: E. coli; assay: Bactericidal activity, LIVE/DEAD BacLight viability assay; assay type: cell-based, Escherichia coli; conditions: 1 h
Method: Escherichia coli strain 43827 was purchased from the American Type Culture Collection and grown in TSB overnight with shaking in air at 37°C. Suspensions were serially diluted in saline and plated on TSB agar to determine CFU per milliliter.
Pg bacteria were collected by centrifugation and diluted to 2 × 10^8 CFU/mL in isotonic saline at 25°C. Pg (10^8 CFU/mL) were then incubated with various concentrations of protease inhibitors at 37°C with gentle mixing in 0.1 mL incubation mixtures in black multiwell plates inside AnaeroGen™ Compact pouches (Oxoid Corporation, Nepean, ON, Canada) to lower the oxygen (O2) concentration. After 1 h, the number of live bacteria per milliliter was measured with a LIVE/DEAD BacLight™ Bacterial Viability kit (Invitrogen, Inc., Carlsbad, CA). […] SYTO 9 enters both live and dead bacteria and binds to DNA, giving a green fluorescence. Propidium iodide enters only dead bacteria and binds to DNA, giving a red fluorescence. […] Immediately following removal of the plate from the pouch, fluorescence was measured in a fluorescence plate reader with excitation at 485 nm. Green fluorescence of SYTO 9 was measured at 538 nm, and red fluorescence of propidium iodide was measured at 612 nm. Standard curves were prepared with various ratios of live and dead bacteria, and the number of live bacteria was determined from the ratio of green to red fluorescence. […]

[7] = test system: cathepsin B; design: method as in McConnell et al., 1993; conditions: ref McConnell et al., 1993; cited from earlier work

CC(C)C[C@H](NC(=O)[C@H]1O[C@@H]1C(=O)O)C(=O)NCCCCN=C(N)N (relative stereo) [E64, trans‐epoxysuccinyl‐L‐leucylamido‐(4‐guanidino)butane]
effect on Kgp activity ([1]; any concentration tested, Pg 33277 cell suspensions): no effect
concentration causing 90% inhibition of Rgp activity ([2]; Pg 33277 cell suspensions): 1 mM
IC50 ([2]; Pg 33277 cell suspensions): 50000 nM

CN(C)C(=O)[C@H](CCCCN)NC(=O)C(=O)[C@H](CCCNC(=N)N)NC(=O)[C@H](CCCCN)NC(=O)OCc1ccccc1 [KYT‐1, carbobenzoxy‐Lys‐Arg‐CO‐Lys‐N(CH3)2]
bactericidal activity [3]: not bactericidal
toxicity to cultured human cells [4]: non‐toxic
water solubility [5]: water soluble
IC50 [1]: 20000 nM
IC50 ([2]; Pg 33277 cell suspensions): 2 nM
difference in concentrations causing 50% inhibition of Rgp and Kgp ([2]; Rgp versus Kgp, cell suspensions): 10,000 fold

CN(NC(=O)CC[C@H](NC(=O)OCc1ccccc1)C(=O)N[C@@H](CCCCN)C(=O)C(=O)NCc1ccccc1)c1ccccc1 [KYT‐36, carbobenzoxy‐Glu(NHN(CH3)Ph)‐Lys‐CO‐NHCH2Ph]
bactericidal activity [3]: not bactericidal
toxicity to cultured human cells [4]: non‐toxic
water solubility [5]: water soluble
IC50 [1]: 1 nM
effect on Rgp activity [2]: did not inhibit Rgp

NC(N)=NCCC[C@H](NC(=O)[C@@H]1CCCN1C(=O)[C@H](N)Cc1ccccc1)C(=O)CCl [PPACK, D‐Phe‐Pro‐Arg‐chloromethylketone]
IC50 ([1]; Pg 33277 cell suspensions, 0.2 mM Boc‐VLK‐AMC, 15 min, read-out: concentration causing 50% inhibition of Kgp activity): 20 nM
IC50 ([2]; Pg 33277 cell suspensions): 2 nM

Cc1cc(C)c(C(=O)OCC(=O)[C@H](CCCCN)NC(=O)[C@H](Cc2ccccc2)NC(=O)OCc2ccccc2)c(C)c1 [Z‐FK‐ck, Z‐Phe‐Lys‐2,4,6‐trimethylbenzoyloxy‐methylketone]
concentration causing 50% loss of viability ([3]; Pg 10^8 CFU/mL, 37°C, low oxygen): 30 µM
bactericidal activity [3]: significant bactericidal activity
concentration causing 50% loss of viability ([6]; 37°C, in air): 30 µM
bactericidal activity ([6]; concentrations up to 1 × 10^−4 M): significant bactericidal activity
IC50 [1]: 0.5 nM
IC50 ([2]; Pg 33277 cell suspensions): 2000 nM

CC(=O)N[C@@H](CC(C)C)C(=O)N[C@H](C(=O)N[C@H](C=O)CCCCN)C(C)C [cathepsin B inhibitor II, Ac‐Leu‐Val‐Lys‐aldehyde] (Ac-Leu-Val-Lys-aldehyde)
effectiveness as inhibitor of cathepsin B relative to leupeptin [7]: ~100 times
IC50 [1]: 50 nM
effect on Rgp activity [2]: no effect

CC(=O)N[C@@H](CC(C)C)C(=O)N[C@@H](CC(C)C)C(=O)N[C@H](C=O)CCCNC(=N)N [leupeptin, Ac‐Leu‐Leu‐Arg‐aldehyde]
effect on Kgp activity ([1]; concentrations up to 1 × 10^−4 M, results not shown): no effect
IC50 ([2]; Pg 33277 cell suspensions): 20 nM
